# Results reported in PMC10967572, “Induction of Oxidative Stress and Ferroptosis in Triple-Negative Breast Cancer Cells by Niclosamide via Blockade of the Function and Expression of SLC38A5 and SLC7A11” (Antioxidants, 2024).
# Legend:
# [1] = system: Nrf2; experiment: Nrf2 expression and subcellular localization (immunostaining, Western blot, qRT-PCR) in TNBC cells; format: cell-based, human; settings: niclosamide 2 μM, 24 h; for Nrf2 protein level: Western blot; for Nrf2 mRNA level: qRT-PCR
# Protocol: (§1) Total RNA was extracted from cells using TRIzol Reagent (ThermoFisher Scientific, Waltham, MA, USA) and the RNA was reverse-transcribed using a high-capacity cDNA reverse transcription kit (ThermoFisher Scientific, Waltham, MA, USA) according to the manufacturer’s protocol. Quantitative RT-PCR was performed with Takara Taq Hot Start Version (TaKaRa Biotechnology, Shiga, Japan) or Power SYBR Green PCR master mix (Bio-Rad, Hercules, CA, USA). Primer sequences are shown in Supplemental Table S1. The relative mRNA expression was determined by the 2^−∆∆Ct method. Additionally, 18S was used as a housekeeping gene for normalization.
# Cells and tumor tissues were lysed in Pierce™ RIPA buffer (ThermoFisher Scientific, Waltham, MA, USA) supplemented with Halt™ Protease and Phosphatase Inhibitor Cocktail (ThermoFisher Scientific, Waltham, MA, USA). Homogenates were centrifuged, and supernatants were used for protein measurement via Pierce™ BCA Protein Assay Kit (ThermoFisher Scientific, Waltham, MA, USA). […] Western blot samples were prepared in Laemmli sample buffer (Bio-Rad Laboratories, Hercules, CA, USA). They were loaded onto a SDS–PAGE gel and transferred onto a PVDF membrane (Bio-Rad Laboratories, Hercules, CA, USA). The membrane was blocked and antibodies diluted in 5% nonfat dry milk (Bio-Rad Laboratories, Hercules, CA, USA) or in 5% bovine serum albumin (Irvine Scientific, Santa Ana, CA, USA) were used. Protein bands were visualized using Pierce™ ECL Western Blotting Substrate (ThermoFisher Scientific, Waltham, MA, USA) and developed on the autoradiography film (Santa Cruz, Dallas, TX, USA). Primary antibodies were purchased either from Cell Signaling (Danvers, MA, USA) [anti-GPX4 (#52455), anti-FTH (#4393), anti-HSP60 (#12165), anti-phospho-p70S6K (#9205), anti-p70S6K (#2708)] or from Abcam (Waltham, MA, USA) [Nrf2 (#ab62352)]. Secondary antibody Horseradish peroxidase-conjugated goat anti-rabbit IgG (#1706515) was purchased from Bio-Rad Laboratories (Hercules, CA, USA). For quantification of protein levels by the densitometric analysis, the experiment was carried out in triplicate and the data were collected from the resultant three Western blots.
# [2] = system: MB231 and TXBR100 cells; experiment: Cellular iron assay (Ferro-orange); format: cell-based, human; settings: niclosamide 5 μM, 30 min
# Protocol: (§2) Lipid radical (ferroptosis) assay and iron assay were performed as follows. Cells were cultured on a 25 mm glass coverslip until they reached 60–70% confluency (~48 h). At the time of the experiment, cells were washed with NaCl buffer, pH 7.5 and then incubated with 1 µM of LipiRadical Green (a lipid radical detection reagent, FDV-0042, Funakoshi, Tokyo, Japan) or Ferro-orange (an iron detection probe, F374, Dojindo, Rockville, MD, USA) in NaCl buffer, pH 7.5 for 20 min and then washed with NaCl buffer, pH 7.5. To analyze the effects of modifiers of iron levels and lipid peroxidation, the cells were co-treated with the modifiers and the respective fluorescent probe for 20 min and then washed. The glass coverslip containing the cells was then probed under an inverted microscope. The fluorescence imaging was captured using a Nikon T1-E microscope with A1 confocal super-resolution module (Nikon, Dallas, TX, USA), with a 60× objective, at 488 nm. The images represent a maximum projection intensity derived from a Z-stack. The fluorescence quantification was performed by measuring the corrected total cell fluorescence (CTCF) using Image J (version: 2.14.0/1.54f) and the following formula; CTCF = (integrated density) − (area of cell of interest) × (mean fluorescence of background).
# [3] = system: MB231 cells and TXBR100 cells; experiment: Lipid radical (ferroptosis) assay with LipiRadical Green; format: cell-based, human; settings: niclosamide 5 μM; MB231 30 min, TXBR100 2 h
# Protocol: as §2
# [4] = system: MB231 and TXBR100 cells; experiment: Reactive oxygen species assay (DCFH-DA); format: cell-based, human; settings: niclosamide 2.5 and/or 5 μM, 24 h
# Protocol: The probe of DCFH-DA was used to measure ROS. Briefly, cells were grown in a 96-well plate and then incubated with DCFH-DA (10 µM) at 37 °C for 30 min in dark. At the end of the incubation, cells were treated with different concentrations of niclosamide. Fluorescence intensity was monitored with a Microplate Reader (Glomax multi-detection system, Promega, Madison, WI, USA) at the excitation and emission wavelengths of 485 and 528 nm, respectively. Cellular fluorescence levels were expressed as % of control group (i.e., no treatment with niclosamide).
# [5] = system: SLC38A5 and SLC7A11 mRNA; experiment: qRT-PCR of SLC38A5 and SLC7A11 mRNA in TNBC cells; format: cell-based, human; settings: niclosamide 2 μM, 24 h; MB231 and TXBR100
# Protocol: as §1
# [6] = system: MB231 xenograft; experiment: Mouse xenograft tumor growth; format: in vivo; settings: MB231 xenograft in nude mice; niclosamide 4 mg/kg daily intraperitoneal
# Protocol: Female athymic nude mice (4-week-old) were purchased from Jackson Laboratories and housed under standard conditions. MDA-MB231 cells were injected into lower mammary fat pad (5 × 10^6 cells). All cells were suspended in serum-free media and Matrigel (1:1 ratio), with 100 µL of suspension being injected into each mouse. Mice were treated by daily intraperitoneal injection of niclosamide (4 mg/kg/day) and vehicle (dimethylsulfoxide) control. The treatment began when the tumor size was 100–150 mm^3. Tumor size was measured biweekly with a caliper, with tumor volume calculated using the formula (width^2 × length)/2. Tumors were allowed to grow for 7 weeks; mice were then euthanized via isoflurane […] and tumors harvested. The animal study protocol was approved by the Texas Tech University Health Sciences Center Institutional Animal Care and Use Committee (IACUC protocol number 18005) and the experiments were conducted in the same institution. RNA and protein were prepared from the tumor tissue for qRT-PCR and Western blotting.
# [7] = system: TNBC cells (MB231 and TXBR100); experiment: MTT cell proliferation / viability assay; format: cell-based, human; settings: niclosamide 2 μM, 72 h, MB231 and TXBR100
# Protocol: Cells were seeded in 96-well plates; after 24 h, niclosamide treatment was initiated. Cells were then cultured for 72 h with fresh medium containing freshly prepared niclosamide supplied every 24 h. Cells were washed with phosphate-buffered saline twice followed by MTT reagent (ATCC). Treatment and lysis of the cells were done as per the manufacturer’s instructions. Absorbance of the lysate was measured at 550 nm. Cell viability assay with various cell-death inhibitors was also performed as described above. Cells were treated with niclosamide (1 µM) along with cell death inhibitors (10 µM), except hydroxychloroquine (25 µM) for 48 h.
smiles,measurement,setting,value
O=C(Nc1ccc([N+](=O)[O-])cc1Cl)c1cc(Cl)ccc1O [niclosamide],Nrf2 protein level,[1]; MB231,decreased
same,Nrf2 mRNA level,[1]; MB231,decreased
same,Nrf2 protein level,[1]; TXBR100,significantly decreased
same,Nrf2 mRNA level,[1]; TXBR100,did not alter
same,cellular iron levels,[2],increased
same,ferroptosis (lipid radical fluorescence),[3],induced ferroptosis
same,ROS levels,[4],increase
same,SLC7A11 mRNA level,[5],decreased
same,SLC38A5 mRNA level,[5],decreased
same,growth of the tumors,[6],drastic reduction
same,decrease in cell proliferation,[7],> 50%
